Test results reported in patent US20230372361A1, “USE OF OXYGENATED CHOLESTEROL SULFATES FOR TREATING INFLAMMATORY CONDITIONS” (Durect Corporation, priority 2020, published 2023).

How the values were obtained:
[1] = Metabolite profiling of plasma, urine, feces after intravenous dose (HPLC radiodetection, MS); format: in vivo, rats; settings: iv 10 mg/kg
Protocol: Plasma pools were made from Group 1 rats at the 0.083, 0.25, 0.5, and 1-hour collection time points.
Urine pools were prepared for Group 2 at 0 to 6 and 6 to 12 hours post-dose. […] Four metabolites present at <10% relative observed intensity in at least 1 sample were M7 (<5% relative observed intensity), M16 (<3% relative observed intensity), M19 (<6% relative observed intensity), and M25 (<5% relative observed intensity).
Feces pools were prepared for Group 2 at 0 to 12, 12 to 24, and 24 to 48 hours post-dose.

[2] = system: DNMT1/3a/3b; experiment: DNMT1/3a/3b activities, overall statements; format: biochemical; settings: for effect on enzymatic activities: controls
Protocol: For the DNMT1 activity assay, the substrate solution, 0.001 mg/ml Poly(dI-dC):Poly(dI-dC) in 50 mM Tris-HCl, pH 7.5, 50 mM NaCl, 5 mM EDTA, 5 mM DTT, 1 mM PMSF, 5% glycerol, 0.01% Brij35, 1% DMSO was used. For the DNMT3a/3b activity assay, 0.0075 mg/ml Lambda DNA in 50 mM Tris-HCl, pH 7.5, 50 mM NaCl, 5 mM EDTA, 5 mM DTT, 1 mM PMSF, 5% glycerol, 1% DMSO, was used. The indicated DNMT1, DNMT3a, or DNMT3b was added to the appropriate substrate solution and gently mixed. […] The mixtures were first incubated for 15 min, then ^3H-SAM was added to the reaction mixture to initiate the reaction, and the mixture was incubated for 60 min at 30° C. Following incubation, the reaction mixture was finally transferred to filter-paper for detection of radioactivity counts.

[3] = Metabolite profiling of plasma and feces after oral dose (radio-HPLC, HPLC/MS); design: species or system rats; settings: Sprague Dawley, rat, in vivo, 75 mg/kg
Protocol: Radiolabeled components in plasma and feces extracts were profiled and identified using radio-high performance liquid chromatography (HPLC) and high performance liquid chromatography/mass spectrometry (HPLC/MS) methods.
Plasma pools were prepared for Group 1 (75 mg/kg, [14C]-25HC3S) samples collected at 2, 4, and 6 hours post-dose. […] One metabolite M29 was identified as 25-hydroxycholesterol with 37% ROI and a concentration of 1233 ng-equiv./g.
Feces pools were prepared for Group 2 (75 mg/kg, [^14C]-25HC3S) samples collected from 0 to 24, 24 to 48, 48 to 72, 72 to 96, 96 to 120, 120 to 144, and 144 to 168 hours post-dose. A total of eleven metabolites were identified. None of the metabolites were present at ≥5% of dose. Metabolites present at 2-5% of dose were M1(4.5% of total dose and 1%-69% ROI), M3 (4.6% of total dose and 1%-44% ROI), M4 (2.0% of total dose and 0%-10% ROI), M8 (3.1% of total dose and 1%-46% ROI), M29 (1.9% of total dose and 0%-2% ROI), and M30 (3.3% of total dose and 0%-5% ROI).

Compound	detection in plasma, urine, or feces samples [1]	effect on enzymatic activities [2]	also measured
C[C@H](CCCC(C)(C)O)[C@H]1CC[C@H]2[C@@H]3CC=C4C[C@@H](O)CC[C@]4(C)[C@H]3CC[C@]12C [25HC, 25-Hydroxycholesterol, reference compound]	Neither desmosterol sulfate nor 25-hydroxycholesterol was detected		
C[C@@H](CO)CCC[C@@H](C)[C@H]1CC[C@H]2[C@@H]3CC=C4C[C@@H](O)CC[C@]4(C)[C@H]3CC[C@]12C [27HC, 27-Hydroxycholesterol]			effect on other enzymes (than DNMT-1) [2]: had no effect on other enzymes
C[C@H](CCCC(C)(C)O)[C@H]1CC[C@H]2[C@@H]3CC=C4C[C@@H](O)CC[C@]4(C)[C@H]3CC[C@]12C [M29, 25-hydroxycholesterol]			ROI in feces [3]: 0-2%
CC(C)CCC[C@@H](C)[C@H]1CC[C@H]2[C@@H]3CC=C4C[C@@H](OS(=O)(=O)O)CC[C@]4(C)[C@H]3CC[C@]12C [Xol3S, 5-cholesten-3β-ol, 3-sulfate]		did not significantly affect enzymatic activities	
CC(C)CCC[C@@H](C)[C@H]1CC[C@H]2[C@@H]3CC=C4C[C@@H](O)CC[C@]4(C)[C@H]3CC[C@]12C [Xol, Cholesterol]		did not significantly affect enzymatic activities	
desmosterol sulfate	Neither desmosterol sulfate nor 25-hydroxycholesterol was detected		
